# Laboratory results taken from US12428406B2 (PMV Pharmaceuticals, Inc., priority 2019, dated 2025).
# Target: T1, p53 Y220C (Homo sapiens, UniProt P04637, Y220C)
# T1 construct: The recombinant protein was a truncation mutant containing only amino acids 94-312 of p53; made in house; host or cells: E. coli
# Assay: In vitro DNA binding activity assay (HTRF / TR-FRET): stabilization of p53 Y220C and increase of its DNA binding activity
# Type: biochemical
# Settings: recombinant His-tagged p53 Y220C DNA binding domain (aa 94-312), biotin-labeled consensus DNA, incubated at 27° C. or 29° C. for 60 min
# Outline: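 Homogeneous time-resolved fluorescence with E. coli-derived p53 Y220C and biotinylated consensus DNA. Room-temperature incubations of 15 and 20 min precede reading. SC150 denotes the compound concentration required for 50% increased DNA binding.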
# T1 sequence (P04637 94-312, change not shown): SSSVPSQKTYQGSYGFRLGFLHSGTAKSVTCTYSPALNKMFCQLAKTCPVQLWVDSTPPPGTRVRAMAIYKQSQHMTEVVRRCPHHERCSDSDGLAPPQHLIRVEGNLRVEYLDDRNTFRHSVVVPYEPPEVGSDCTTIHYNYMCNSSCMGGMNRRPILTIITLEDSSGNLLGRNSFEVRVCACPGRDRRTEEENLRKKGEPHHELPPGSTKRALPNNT
row,SMILES,SC150 (concentration of the compound required to increase the DNA binding activity by 50%)
1,"COCC(O)CN1CCC(Nc2cccc3c2cc(C#CCNc2ccc(S(C)(=O)=O)cc2OC)n3CC(F)(F)F)C1 (centres unmarked) [Compound 455A, 1-{3-[(2-{3-{(4-methanesulfonyl-2-methoxyphenyl)amino]prop-1-yn-1-yl}-1-(2,2,2-trifluoroethyl)-1H-indol-4-yl)amino]pyrrolidin-1-yl}-3-methoxypropan-2-ol]",+ (+ = 0 μM ≤ SC150 < 0.05 μM)
2,"COCC(O)CN1CCC(Nc2cccc3c2cc(C#CCNC(=O)c2ccccc2)n3CC(F)(F)F)C1 (centres unmarked) [Compound 456A, N-[3-(4-{[1-(2-hydroxy-3-methoxypropyl)pyrrolidin-3-yl]amino}-1-(2,2,2-trifluoroethyl)-1H-indol-2-yl)prop-2-yn-1-yl]benzamide]",++++ (++++ = 0.2 μM ≤ SC150 < 1 μM)
3,"COCC(O)CN1CCC(Nc2cccc3c2cc(C#CCNc2ccc(S(C)(=O)=O)cc2)n3CC(F)(F)F)C1 (stereo not drawn) [Compound 457A, l-{3-[(2-{3-[(4-methanesulfonylphenyl)amino]prop-1-yn-1-yl}-1-(2,2,2-trifluoroethyl)-1H-indol-4-yl)amino]pyrrolidin-1-yl}-3-methoxypropan-2-ol]",++ (++ = 0.05 μM ≤ SC150 < 0.1 μM)
4,"COc1cc(S(C)(=O)=O)ccc1NCC#Cc1cc2c(NC3CCN(C4CCOCC4)C3)cccc2n1CC(F)(F)F (centres unmarked) [Compound 458A, 2-{3-[(4-methanesulfonyl-2-methoxyphenyl)amino]prop-1-yn-1-yl}-N-[1-(oxan-4-yl)pyrrolidin-3-yl]-1-(2,2,2-trifluoroethyl)-1H-indol-4-amine]",+ (+ = 0 μM ≤ SC150 < 0.05 μM)
5,"COc1cc(S(=O)(=O)N2CCOCC2)ccc1NCC#Cc1cc2c(NC3CCNCC3)cccc2n1CC(F)(F)F [Compound 459A, 2-(3-{[2-methoxy-4-(morpholine-4-sulfonyl)phenyl]amino}prop-1-yn-1-yl)-N-(piperidin-4-yl)-1-(2,2,2-trifluoroethyl)-1H-indol-4-amine]",+ (+ = 0 μM ≤ SC150 < 0.05 μM)
6,COc1cc(S(=O)(=O)N(C)C)ccc1NCC#Cc1cc2c(NC3CCNCC3)cccc2n1CC(F)(F)F [Compound 460A],+ (+ = 0 μM ≤ SC150 < 0.05 μM)
7,"CS(=O)(=O)c1ccc(NCC#Cc2cc3c(NC4CCNCC4)cccc3n2CC(F)(F)F)c(OCC#N)c1 [Compound 461A, 2-{5-methanesulfonyl-2-[(3-{4-[(piperidin-4-yl)amino]-1-(2,2,2-trifluoroethyl)-1H-indol-2-yl}prop-2-yn-1-yl)amino]phenoxy}acetonitrile]",+ (+ = 0 μM ≤ SC150 < 0.05 μM)
8,"COc1cc(S(C)(=O)=O)ccc1NCC#Cc1cc2c(N[C@@H]3CCCNC3)cccc2n1CC(F)(F)F [Compound 463A, 2-{3-[(4-methanesulfonyl-2-methoxyphenyl)amino]prop-1-yn-1-yl}-N-[(3R)-piperidin-3-yl]-1-(2,2,2-trifluoroethyl)-1H-indol-4-amine]",+ (+ = 0 μM ≤ SC150 < 0.05 μM)
9,"COc1cc(S(N)(=O)=O)ccc1NCC#Cc1cc2c(N[C@H]3CCN[C@@H](C)C3)cccc2n1CC(F)(F)F [Compound 464A, 3-methoxy-4-{[3-(4-{[(2S,4S)-2-methylpiperidin-4-yl]amino}-1-(2,2,2-trifluoroethyl)-1H-indol-2-yl)prop-2-yn-1-yl]amino} benzene-1-sulfonamide]",+ (+ = 0 μM ≤ SC150 < 0.05 μM)
10,CN1CCC(Nc2cccc3c2cc(C#CCNc2ccc(S(C)(=O)=O)cc2OC(F)(F)F)n3CC(F)(F)F)CC1 [Compound 466A],+ (+ = 0 μM ≤ SC150 < 0.05 μM)
11,"COc1cc(C(C)(C)C#N)ncc1NCC#Cc1cc2c(NC3CCN(C)CC3)cccc2n1CC(F)(F)F [Compound 468A, 2-{4-methoxy-5-[(3-{4-[(1-methylpiperidin-4-yl)amino]-1-(2,2,2-trifluoroethyl)-1H-indol-2-yl}prop-2-yn-1-yl)amino]pyridin-2-yl}-2-methylpropanenitrile]",+ (+ = 0 μM ≤ SC150 < 0.05 μM)
12,"COc1cc(S(=O)(=O)Nc2ccon2)ccc1NCC#Cc1cc2c(NC3CCN(C)CC3)cccc2n1CC(F)(F)F [Compound 469A, 3-methoxy-4-[(3-{4-[(1-methylpiperidin-4-yl)amino]-1-(2,2,2-trifluoroethyl)-1H-indol-2-yl}prop-2-yn-1-yl)amino]-N-(1,2-oxazol-3-yl)benzene-1-sulfonamide]",+ (+ = 0 μM ≤ SC150 < 0.05 μM)
13,"COc1cc(S(=O)(=O)NC2CCOCC2)ccc1NCC#Cc1cc2c(NC3CCN(C)CC3)cccc2n1CC(F)(F)F [Compound 470A, 3-methoxy-4-[(3-{4-[(1-methylpiperidin-4-yl)amino]-1-(2,2,2-trifluoroethyl)-1H-indol-2-yl}prop-2-yn-1-yl)amino]-N-(oxan-4-yl)benzene-1-sulfonamide]",+ (+ = 0 μM ≤ SC150 < 0.05 μM)
14,"COc1cc(S(=O)(=O)Nc2cc(C)on2)ccc1NCC#Cc1cc2c(NC3CCN(C)CC3)cccc2n1CC(F)(F)F [Compound 471A, 3-methoxy-N-(5-methyl-1,2-oxazol-3-yl)-4-[(3-{4-[(1-methylpiperidin-4-yl)amino]-1-(2,2,2-trifluoroethyl)-1H-indol-2-yl}prop-2-yn-1-yl)amino]benzene-1-sulfonamide]",+ (+ = 0 μM ≤ SC150 < 0.05 μM)
15,"COc1cc(S(=O)(=O)N(C)CCO)ccc1NCC#Cc1cc2c(NC3CCN(C)CC3)cccc2n1CC(F)(F)F [Compound 472A, N-(2-hydroxyethyl)-3-methoxy-N-methyl-4-[(3-{4-[(1-methylpiperidin-4-yl)amino]-1-(2,2,2-trifluoroethyl)-1H-indol-2-yl}prop-2-yn-1-yl)amino]benzene-1-sulfonamide]",+ (+ = 0 μM ≤ SC150 < 0.05 μM)
16,"COc1cc(S(=O)(=O)N(C)C)ccc1NCC#Cc1cc2c(NC3CCN(C)CC3)cccc2n1CC(F)(F)F [Compound 473A, 3-methoxy-N,N-dimethyl-4-[(3-{4-[(1-methylpiperidin-4-yl)amino]-1-(2,2,2-trifluoroethyl)-1H-indol-2-yl}prop-2-yn-1-yl)amino]benzene-1-sulfonamide]",+ (+ = 0 μM ≤ SC150 < 0.05 μM)
17,"COc1cc(S(N)(=O)=O)ccc1NCC#Cc1cc2c(NC3CCN(C)CC3)cc(F)cc2n1CC(F)(F)F [Compound 474A, 4-[(3-{6-fluoro-4-[(1-methylpiperidin-4-yl)amino]-1-(2,2,2-trifluoroethyl)-1H-indol-2-yl}prop-2-yn-1-yl)amino]-3-methoxybenzene-1-sulfonamide]",+ (+ = 0 μM ≤ SC150 < 0.05 μM)
18,"COc1cc(S(C)(=O)=O)ccc1NCC#Cc1cc2c(NC3CCN(C)CC3)cc(F)cc2n1CC(F)(F)F [Compound 475A, 6-fluoro-2-{3-[(4-methanesulfonyl-2-methoxyphenyl)amino]prop-1-yn-1-yl}-N-(1-methylpiperidin-4-yl)-1-(2,2,2-trifluoroethyl)-1H-indol-4-amine]",+++ (+++ = 0.1 μM ≤ SC150 < 0.2 μM)
19,"COCCN(C)S(=O)(=O)c1ccc(NCC#Cc2cc3c(NC4CCN(C)CC4)cccc3n2CC(F)(F)F)c(OC)c1 [Compound 477A, 3-methoxy-N-(2-methoxyethyl)-N-methyl-4-[(3-{4-[(1-methylpiperidin-4-yl)amino]-1-(2,2,2-trifluoroethyl)-1H-indol-2-yl}prop-2-yn-1-yl)amino]benzene-1-sulfonamide]",+ (+ = 0 μM ≤ SC150 < 0.05 μM)
20,"COc1cc(S(C)(=O)=O)ccc1N(C)CC#Cc1cc2c(NC3CCN(C)CC3)cccc2n1CC(F)(F)F [Compound 478A, 2-{3-[(4-methanesulfonyl-2-methoxyphenyl) (methyl)amino]prop-1-yn-1-yl}-N-(1-methylpiperidin-4-yl)-1-(2,2,2-trifluoroethyl)-1H-indol-4-amine]",++++ (++++ = 0.2 μM ≤ SC150 < 1 μM)
21,COc1cc(S(=O)(=O)N2CCN(C(C)=O)CC2)ccc1NCC#Cc1cc2c(NC3CCN(C)CC3)cccc2n1CC(F)(F)F [Compound 479A],+ (+ = 0 μM ≤ SC150 < 0.05 μM)
22,"COc1cc(S(=O)(=O)N2CCOCC2)ccc1NCC#Cc1cc2c(NC3CCN(C)CC3)cccc2n1CC(F)(F)F [Compound 480A, 2-(3-{[2-methoxy-4-(morpholine-4-sulfonyl)phenyl]amino}prop-1-yn-1-yl)-N-(1-methylpiperidin-4-yl)-1-(2,2,2-trifluoroethyl)-1H-indol-4-amine]",+ (+ = 0 μM ≤ SC150 < 0.05 μM)
23,"CNC(=O)c1ccc(NCC#Cc2cc3c(NC4CCN(C)CC4)cccc3n2CC(F)(F)F)c(OC)c1 [Compound 482A, 3-methoxy-N-methyl-4-[(3-{4-[(1-methylpiperidin-4-yl)amino]-1-(2,2,2-trifluoroethyl)-1H-indol-2-yl}prop-2-yn-1-yl)amino]benzamide]",+ (+ = 0 μM ≤ SC150 < 0.05 μM)
